Source: patent US11413278B2, “Compounds and methods for promoting stress resistance” (priority 2015, dated 2022)
Entries after “also recorded” stand apart in the source; their conditions may differ. Like-named read-outs stand apart in the source and are kept apart here.

Columns and labels:
human PARP1 = target: T1, human PARP1 (Homo sapiens, UniProt P09874); test: PARP inhibitor assay (HT Fluorescent Homogeneous PARP Inhibition Assay Kit); type: biochemical; details: score
T1 construct: purchased Trevigen
Summary of the method: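 Human PARP1 with NAD and activated DNA, compounds at 10 μM final, 30 min at room temperature in dark. Resazurin/diaphorase cycling mix then added for 1 hr in dark before stop buffer; fluorescent homogeneous kit read-out.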

FOXO3 = test: qPCR analysis of FOXO3-regulated genes; type: cell-based, human; details: for Induction of at least two of five FOXO3-regulated genes (SOD2, GADD45A, CAT, DDB1, TXNIP): WI-38; for fold induction at 10 µM: Homo sapiens; for K = Sestrin induction: score
Summary of the method: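 WI-38 cells treated with compound at 10 μM for 24 h, followed by Cells-to-Ct RT-qPCR of FOXO3 target genes normalised to B2M, PPIA and GAPDH. FOXO3 or NRF2 dependence tested by prior 10 nM siRNA knockdown (36 h transfection, compound added ~24 h after replating).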

[1] = tested on: PC12 cells expressing poly(Q)103-Htt-EGFP; test: Poly(Q) toxicity & viability analysis (cellular model of Huntington's disease); type: cell-based, rat; details: for M = Huntington's poly-Q toxicity attenuation: score; for K = Huntington's poly-Q toxicity attenuation: summary score
Summary of the method: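 PC12 cells stably carrying inducible poly(Q)103-Htt-EGFP, whose induced expression causes aggregation and toxicity. Viability read 48 hrs later as ATP content by CellTiter-Glo.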

WI-38 cells = details: for PI cell-death imaging without H2O2 (indicating potential toxicity): Assay 8(k), without H2O2, at 10 uM; for PI-positive dead cells under normal conditions: control 0.4±0.2%; for Percentage of propidium iodide-positive dead cells (no H2O2 stress treatment), at 10 uM: negative control 0.41% ± 0.23%
Protocol: WI-38 cells were seeded on 384-well plates for 24 hrs and then incubated with small molecules for 24 hrs. […] Images were collected on an INCell Analyzer 2000 (GE) and analyzed with the Developer software.

[2] = tested on: HTB-178 lung tumor cells (EGFR+, PIK3CA+, RB1−, TP53−); test: Killing effects on HTB-178 tumor cells; type: cell-based, human; details: Assay 1(y), at 10 uM
[3] = 24 h, Assay 10(m), at 10 uM, qPCR, read-out: Induction of FOXO3-regulated genes: CAT normalized fold-change
[4] = 24 h, Assay 10(m), at 10 uM, qPCR, read-out: Induction of FOXO3-regulated genes: GADD45A normalized fold-change
[5] = 24 h, Assay 10(m), at 10 uM, qPCR, read-out: Induction of FOXO3-regulated genes: SESN1 normalized fold-change
[6] = 24 h, Assay 10(m), at 10 uM, qPCR, read-out: Induction of FOXO3-regulated genes: TXNIP normalized fold-change
[7] = 10 μM, 24 hrs, WI-38 cells, qPCR, normalized to B2M, n = 4, read-out: CAT expression, normalized fold change (FOXO3-regulated gene)
[8] = 10 μM, 24 hrs, WI-38 cells, qPCR, normalized to B2M, n = 4, read-out: GADD45A expression, normalized fold change (FOXO3-regulated gene)
[9] = 10 μM, 24 hrs, WI-38 cells, qPCR, normalized to B2M, n = 4, read-out: SESN1 expression, normalized fold change (FOXO3-regulated gene)
[10] = 10 μM, 24 hrs, WI-38 cells, qPCR, normalized to B2M, n = 4, read-out: TXNIP expression, normalized fold change (FOXO3-regulated gene)
[11] = WI-38 cells, 10 μM, 24 hrs, n=4, qPCR normalized by B2M, read-out: DDB1 Normalized fold change
[12] = WI-38 cells, 10 μM, 24 hrs, n=4, qPCR normalized by B2M, read-out: GADD45A Normalized fold change
[13] = WI-38 cells, 10 μM, 24 hrs, n=4, qPCR normalized by B2M, read-out: SESN1 Normalized fold change
[14] = fold change, qPCR, WI-38 cells, 10 μM, 24 hrs, read-out: Summary of effects on FOXO3-regulated genes: CAT
[15] = fold change, qPCR, WI-38 cells, 10 μM, 24 hrs, read-out: Summary of effects on FOXO3-regulated genes: GADD45A
[16] = fold change, qPCR, WI-38 cells, 10 μM, 24 hrs, read-out: Summary of effects on FOXO3-regulated genes: SESN1
[17] = fold change, qPCR, WI-38 cells, 10 μM, 24 hrs, read-out: Summary of effects on FOXO3-regulated genes: TXNIP
[18] = qPCR, WI-38 cells, 10 μM, n=4, 24 hrs, normalized by B2M, read-out: CAT Normalized fold change
[19] = qPCR, WI-38 cells, 10 μM, n=4, 24 hrs, normalized by B2M, read-out: SOD2 Normalized fold change
[20] = qPCR, WI-38 cells, 10 μM, n=4, 24 hrs, normalized by B2M, read-out: TXNIP Normalized fold change
[21] = 24 h, Assay 10(m), at 10 uM, qPCR, read-out: Induction of FOXO3-regulated genes: DDB1 normalized fold-change

T1 sequence (P09874 whole entry): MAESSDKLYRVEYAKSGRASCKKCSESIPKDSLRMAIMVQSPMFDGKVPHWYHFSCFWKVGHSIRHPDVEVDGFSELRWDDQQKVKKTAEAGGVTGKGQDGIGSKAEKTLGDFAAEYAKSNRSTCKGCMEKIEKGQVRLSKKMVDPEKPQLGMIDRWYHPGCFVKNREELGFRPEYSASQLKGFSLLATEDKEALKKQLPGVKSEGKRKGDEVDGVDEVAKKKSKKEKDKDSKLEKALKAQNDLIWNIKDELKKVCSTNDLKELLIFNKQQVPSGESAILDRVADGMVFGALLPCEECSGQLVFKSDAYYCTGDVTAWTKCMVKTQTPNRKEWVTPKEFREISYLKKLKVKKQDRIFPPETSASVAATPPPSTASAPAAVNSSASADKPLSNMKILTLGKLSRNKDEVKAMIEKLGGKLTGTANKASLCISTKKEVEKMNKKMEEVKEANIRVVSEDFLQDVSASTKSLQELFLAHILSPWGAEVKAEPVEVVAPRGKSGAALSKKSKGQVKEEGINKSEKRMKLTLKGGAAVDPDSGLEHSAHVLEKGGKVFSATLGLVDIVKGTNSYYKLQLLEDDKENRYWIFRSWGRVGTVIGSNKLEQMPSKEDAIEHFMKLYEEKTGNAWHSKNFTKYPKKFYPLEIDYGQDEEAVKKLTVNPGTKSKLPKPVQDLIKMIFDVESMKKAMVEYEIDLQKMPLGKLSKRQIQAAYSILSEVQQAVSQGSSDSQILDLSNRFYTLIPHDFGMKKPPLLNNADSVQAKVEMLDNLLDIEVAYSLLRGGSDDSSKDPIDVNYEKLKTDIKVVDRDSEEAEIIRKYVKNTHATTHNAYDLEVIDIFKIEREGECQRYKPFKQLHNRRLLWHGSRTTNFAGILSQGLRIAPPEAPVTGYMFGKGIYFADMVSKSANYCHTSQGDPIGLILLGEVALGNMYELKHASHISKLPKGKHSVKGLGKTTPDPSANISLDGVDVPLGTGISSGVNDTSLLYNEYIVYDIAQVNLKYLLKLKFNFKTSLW

Compound	L = PARP inhibition (human PARP1)	Induction of at least two of five FOXO3-regulated genes (SOD2, GADD45A, CAT, DDB1, TXNIP) (FOXO3; 10 μM, 24 hrs)	E = Potential FOXO3 Activation (FOXO3; 2-point score)	fold induction at 10 µM (FOXO3; [3])	fold induction at 10 µM (FOXO3; [4])	fold induction at 10 µM (FOXO3; [7])	fold induction at 10 µM (FOXO3; [11])	fold induction at 10 µM (FOXO3; [12])	fold induction at 10 µM (FOXO3; [13])	fold induction at 10 µM (FOXO3; [14])	fold induction at 10 µM (FOXO3; [18])	fold induction at 10 µM (FOXO3; [19])	fold induction at 10 µM (FOXO3; [20])	K = Sestrin induction (FOXO3)	E = Potential FOXO3 Activation (FOXO3; summary score)	M = Huntington's poly-Q toxicity attenuation [1]	K = Huntington's poly-Q toxicity attenuation [1]	PI cell-death imaging without H2O2 (indicating potential toxicity) (WI-38 cells)	PI-positive dead cells under normal conditions (WI-38 cells; WI-38, no H2O2)	Percentage of propidium iodide-positive dead cells (no H2O2 stress treatment), at 10 uM (WI-38 cells)	also measured
CCCN1C/C(=C\c2ccc(F)cc2)C(=O)/C(=C/c2ccc(F)cc2)C1 [O15]	0	significant induction; also recorded: significant, induction	0	1.28	2.72	1.28	1.17	2.71	0.679	1.28	1.28	1.05	0.219	0	0	0	0	YES	3.8%±0.7%	3.76% ± 0.68%,	fold induction at 10 µM (FOXO3; [5]): 0.8; fold induction at 10 µM (FOXO3; [6]): 0.22; fold induction at 10 µM (FOXO3; [8]): 2.72; fold induction at 10 µM (FOXO3; [9]): 0.8; fold induction at 10 µM (FOXO3; [10]): 0.22; fold induction at 10 µM (FOXO3; [15]): 2.72; fold induction at 10 µM (FOXO3; [16]): 0.8; fold induction at 10 µM (FOXO3; [17]): 0.22; Potential killing effects on HTB-178 tumor cells, 1st ([2]; 1st): YES;; Potential killing effects on HTB-178 tumor cells, 2nd ([2]; 2nd): YES.
CCc1ccccc1NC(=O)c1ccc([N+](=O)[O-])o1 [Gr-1C]	0	significant induction; also recorded: induce FOXO3-regulated genes	0	1.41	0.6	1.44	1.4	0.727	1.9	1.44	1.44	1.33	1.23	0	0	1	1	YES	3.5±1.3%	3.51% ± 1.28%,	fold induction at 10 µM (FOXO3; [21]): 1.14; fold induction at 10 µM (FOXO3; [5]): 1.59; fold induction at 10 µM (FOXO3; WI-38, 24 h, read-out: SESN1 expression): > 1.5; Viability of PC12 cells upon induction of toxic poly(Q)103-Htt-EGFP aggregates ([1]; 2.5 μM, 5 μM, 10 μM and 20 μM): consistently increased the viability; Assay 20: Huntington's poly-Q toxicity attenuation ([1]; 10 uM, YES/NO): YES; Percentage of propidium iodide-positive (dead) cells under normal conditions (qualitative) (WI-38 cells; WI-38, no H2O2): increased the percentage
O=C(Nc1cc(C(F)(F)F)ccc1Cl)c1ccc([N+](=O)[O-])o1 [Gr-1B]	0	significant induction; also recorded: significant, induction	0	1.4		1.4	1.18	0.947	1.3	1.4	1.4	1.21	1.94	0	0	0	0	YES	1.0%±0.3%	1.03% ± 0.34%,	fold induction at 10 µM (FOXO3; [6]): 1.52; fold induction at 10 µM (FOXO3; [9]): 1.3; fold induction at 10 µM (FOXO3; [10]): 1.94; fold induction at 10 µM (FOXO3; [16]): 1.3; fold induction at 10 µM (FOXO3; [17]): 1.94
COc1ccc(C(=O)/C=C/c2cccc(Cl)c2)c(OC)c1 [Gr-4C]	0	significant induction; also recorded: significant, induction	0	1.19	1.23	1.19	1.51	1.23	1.42	1.19	1.19	1.04	0.179	0	0	0	0			0.47% ± 0.20%,	fold induction at 10 µM (FOXO3; [21]): 1.51; fold induction at 10 µM (FOXO3; [5]): 1.42; fold induction at 10 µM (FOXO3; [6]): 0.18; fold induction at 10 µM (FOXO3; 10 μM, 24 hrs, WI-38 cells, qPCR, normalized to B2M, n = 4, read-out: DDB1 expression, normalized fold change (FOXO3-regulated gene)): 1.51; fold induction at 10 µM (FOXO3; [8]): 1.23; fold induction at 10 µM (FOXO3; [9]): 1.42; fold induction at 10 µM (FOXO3; [10]): 0.18; fold induction at 10 µM (FOXO3; fold change, qPCR, WI-38 cells, 10 μM, 24 hrs, read-out: Summary of effects on FOXO3-regulated genes: DDB1): 1.51; fold induction at 10 µM (FOXO3; [15]): 1.23; fold induction at 10 µM (FOXO3; [16]): 1.42; fold induction at 10 µM (FOXO3; [17]): 0.18
O=C(Nc1ccc(Cl)c(Cl)c1)c1ccc([N+](=O)[O-])o1 [Gr-1G]	0		0	1.35	0.6	1.35	1.14	0.597	1.38	1.35	1.35	0.756	1.03	0	0	0	0	YES	7.1%±1.1%		SOD2 expression, normalized fold change (FOXO3-regulated gene) (FOXO3; 10 μM, 24 hrs, WI-38 cells, qPCR, normalized to B2M, n = 4): SOD2 0.76, fold; fold induction at 10 µM (FOXO3; 24 h, Assay 10(m), at 10 uM, qPCR, read-out: Induction of FOXO3-regulated genes: SOD2 normalized fold-change): 0.76; fold induction at 10 µM (FOXO3; [8]): 0.6; fold induction at 10 µM (FOXO3; [15]): 0.6; Summary of effects on FOXO3-regulated genes: SOD2 (FOXO3; fold change, qPCR, WI-38 cells, 10 μM, 24 hrs): SOD2 0.76,
CCc1ccc(Oc2nc3ccccn3c(=O)c2/C=C(\C#N)C(=O)NCc2ccco2)cc1 [Gr-5B]	0		0				1.25	0.808	1.36		1.42	1.13	1.2	0	0	0	0			0.45% ± 0.15%,	
